Laboratory results taken from patent US20260275281A1, “COMPOSITIONS AND METHODS FOR DIFFERENTIATING RPE CELLS” (STEMCELL TECHNOLOGIES CANADA INC., priority 2023, published 2026).

System: H9-derived RPE cells
Conditions: increasing concentrations 10 μM, 25 µM and 50 μM in maturation medium, versus unsupplemented medium
Protocol: RPE pigmentation levels of cells at different stages of differentiation, but usually day 49 mature (d) RPE, could be analysed by a melanin content assay. […] A total of 4×10^5 RPE were added per well of a 96 well u bottom plate and centrifuged at 500×g for 3 minutes. Once the supernatant was removed, cells were resuspended in 100 μL of D-PBS and transferred to a 96 well tissue culture plate. RPE were centrifuged at 300×g for 3 minutes and absorbance was measured at 490 nm. Melanin content was calculated relative to the synthetic standard.

ferric ammonium citrate
melanogenesis (brightfield microscopy and melanin content assay): increasing levels of melanogenesis
